Read-outs that look alike come from different tables or passages of the source.
Tests used:
Test in all cases: IncuCyte Kinetic Caspase-3/7 Apoptosis Assay
Type in all cases: cell-based
Conditions in all cases: Homo sapiens, read-out: Compound 1-induced Apoptosis EC50
[1] = tested on: F36-P
Text: (§1) Methods. Acute Myeloid Leukemia Cell Line Panel: Human AML cell lines, AML-193, F36-P, GDM-1, HL-60, HNT-34, Kasumi-1, Kasumi-3, KG-1, KG-1a, ML-2, MOLM-13, MUTZ-8, MV-4-11, NOMO-1, OCI-AML2, OCI-AML3, SIG-M5, TF-1, THP-1, and UT-7 were obtained from American Type Culture Collection (ATCC; Manassas, Va.) and Deutsche Sammlung von Mikroorganismen und Zellkulturen (DSMZ) (Germany) cell banks. The AML panel includes cell line(s) from each FAB classification (M0-M7) (Table 7).
(§2) Cell Culture Conditions: Cell lines were maintained in growth media containing 20% fetal bovine serum (FBS) (Hyclone Cat no. SH30910.03, Lot no. AZF188864; Corning REFno. 35-010-CV, Lot no. 35010124) supplemented with or without 10 ng/mL human recombinant granulocyte-macrophage colony stimulating factor (Sigma-Aldrich Cat no. SRP3050) (Table 8). Medium was purchased from ATCC (Cat no. 30-2001, 30-2002, 30-2003, 30-2005) and Gibco (REF no. 12561-056). Human recombinant granulocyte macrophage colony stimulating factor (GM-CSF) was expressed in Escherichia coli. The cell doubling times for each cell line were provided by ATCC and DSMZ. Cells were maintained in humidified incubators at 5% carbon dioxide (CO2). All cell lines were acclimated to Eagle's minimal essential medium (EMEM)+20% FBS with or without GM-CSF over 2 to 4 weeks prior to live cell imaging using IncuCyte Zoom (Essen Biosciences). The use of EMEM was necessary to eliminate background fluorescence caused by riboflavin in most media.
(§3) Incubation of Cell Cultures with Compound 1: Compound 1 was provided for studies by Celgene chemistry group at a stock concentration of 30 mM in 20 μL dimethyl sulfoxide (DMSO) frozen. Costar 96-well cell culture plates (Corning Cat no. 3595) were coated with 100 μL of 10 µg/mL fibronectin (Sigma-Aldrich Cat no. F1141) for 4 hours at 37° C. and immediately used or refrigerated overnight for later use. Cells (3000 to 6000 cells) were plated in growth medi in fibronectin-coated 96-well plates and incubated for a minimum of a few hours to overnight. Cells were incubated with a 12-point concentration response in triplicate with Compound 1 ([…]) including DMSO and Media controls. A 3-fold serial dilution of Compound 1 starting from a concentration of 200 μM in 0.6% DMSO (diluted in Media) was performed. For most sensitive cell lines, a 3-fold serial dilution of Compound 1 starting from a concentration of 20 μM in 0.6% DMSO (diluted in media) was performed. A volume of 5 μL or 10 μL for each dilution was added to 100 μL or 200 μL cells, respectively (0.3% DMSO final) and incubated for live cell imaging.
(§4) Live Cell Imaging on IncuCyte Zoom: Following incubation of cells with Compound 1, diluted Caspase 3/7 reagent (Essen Biosciences Cat no. 4440) is added to each well. The Caspase-3/7 reagent couples the activated caspase-3/7 recognition motif (DEVD) to NucView™488, a DNA intercalating dye. The cleavage of substrate by activated caspase-3/7 results in the release of the DNA dye and green fluorescent staining of nuclear DNA. This allows imaging of cells undergoing caspase-3/7 mediated apoptosis over time. Caspase-3/7 activation was quantified using the IncuCyte™ ZOOM basic analyzer. Red-labeled cell lines were also imaged over time using the IncuCyte™ ZOOM basic analyzer, for determination of both cell doubling time and Compound 1 effect on cell viability. Experiments were performed at least two times in each cell line.
(§5) Next, a 4 parameter log-logistic model was used to determine relative EC50 at each time point by the ‘drm’ function from the R ‘drc’ package (Ritz C, Streibig J C. Bioassay Analysis using R. J. Statist. Software 2005; 12(5):1-22). Goodness of fit was measured by R squared (coefficient of determination or the amount of variation explained by the model fit) of ≥80%, and EC50 parameter was assessed by having a ratio of standard error to the parameter of ≤40%, and the presence of at least one concentration point above and below the reported EC50. […]

[2] = tested on: AML-193
Text: as §1, §2, §3, §4, §5

[3] = tested on: GDM-1
Text: as §1, §2, §3, §4, §5

[4] = tested on: TF-1
Text: as §1, §2, §3, §4, §5

[5] = tested on: SIG-M5
Text: as §1, §2, §3, §4, §5

[6] = tested on: KG-1a
Text: as §1, §2, §3, §4, §5

[7] = tested on: Kasumi-1
Text: as §1, §2, §3, §4, §5

[8] = tested on: MOLM-13
Text: as §1, §2, §3, §4, §5

[9] = tested on: ML-2
Text: as §1, §2, §3, §4, §5

Compound `O=C1CCC(N2Cc3cc(CNC(=O)C(F)(F)c4ccc(Cl)cc4)ccc3C2=O)C(=O)N1` (stereo not shown) [Compound 1, 2-(4-chlorophenyl)-N-((2-(2,6-dioxopiperidin-3-yl)-1-oxoisoindolin-5-yl)methyl)-2,2-difluoroacetamide] has an EC50 ([1]; 48 hr) of 335 nM, an EC50 ([1]; 72 hr) of 252 nM and an EC50 ([1]; 96 hr) of 229 nM. The EC50 ([2]; 24 hr) was 254 nM, the EC50 ([2]; 48 hr) was 89 nM and the EC50 ([2]; 72 hr) was 47 nM. It also gave an EC50 ([2]; 96 hr) of 60 nM, an EC50 ([3]; 12 hr) of 110 nM and an EC50 ([3]; 24 hr) of 313 nM. For the same compound, the EC50 ([3]; 48 hr) was 49 nM, the EC50 ([3]; 72 hr) was 33 nM and the EC50 ([3]; 96 hr) was 25 nM. It also gave an EC50 ([4]; 48 hr) of 129 nM, an EC50 ([4]; 72 hr) of 65 nM and an EC50 ([4]; 96 hr) of 64 nM. For the same compound, the EC50 ([5]; 24 hr) was 148 nM, the EC50 ([5]; 48 hr) was 97 nM and the EC50 ([5]; 72 hr) was 50 nM. For the same compound, the EC50 ([5]; 96 hr) was 33 nM, the EC50 ([6]; 24 hr) was 226 nM and the EC50 ([6]; 48 hr) was 145 nM. For the same compound, the EC50 ([6]; 72 hr) was 186 nM, the EC50 ([7]; 48 hr) was 124 nM and the EC50 ([7]; 72 hr) was 254 nM. It also gave an EC50 ([7]; 96 hr) of 55 nM, an EC50 ([8]; 24 hr) of 916 nM and an EC50 ([8]; 48 hr) of 368 nM. For the same compound, the EC50 ([8]; 72 hr) was 156 nM, the EC50 ([8]; 96 hr) was 79 nM and the EC50 ([9]; 12 hr) was 179 nM. The EC50 ([9]; 24 hr) was 62 nM, the EC50 ([9]; 48 hr) was 31 nM and the EC50 ([9]; 72 hr) was 21 nM. The EC50 ([9]; 96 hr) was 25 nM.

From patent US11590117B2, “Treatment of a hematologic malignancy with 2-(4-chlorophenyl)-n-((2-(2,6-dioxopiperidin-3-yl)-1-oxoisoindolin-5-yl)methyl)-2,2-difluoroacetamide” (priority 2016, dated 2023)
